Experimental data reported in ChEMBL document CHEMBL3507680, “University of Dundee, Gates Library screen for HepG2 cell viability”.

Assay: Human HepG2 cell viability assay in 384 well format
Format: toxicity, cell-based
Design: dose 125 nL, time 70.5 hour; concentration not given beside the values
Conditions: HepG2 cells, read-out: Inhibition

SMILES	cytotoxicity at 70.5 h
COc1cccc(CNCc2ccccc2Cl)c1O	26.4%
Cc1ncccc1NC(=O)[C@@H]1CCO[C@@H]2CCN(c3ccccc3)C[C@@H]21	-3.01%
Cc1ccc(N2CCC(C(=O)O)(n3ccc(C(C)C)n3)CC2)nn1	-1.26%
Cc1cc2c(=O)n(CCOCCO)cnc2s1	-5.77%
O=C(NCC(O)Cc1ccccc1)c1ccc2[nH]c(=O)[nH]c2c1 (centres undefined)	-6.14%
O=C(c1csc(-c2ncccn2)n1)N1CCCC1Cn1cccn1 (centres undefined)	22.5%
CN1CCCC(c2nnc3n2CCN(S(=O)(=O)c2ccccc2Cl)C3)C1 (centres undefined)	-9.93%
Cc1ccccc1C(=O)CN1C(=O)c2ccccc2CS1(=O)=O	5.68%
CN(C)c1ncc2c(O)nc(C3CCCNC3)cc2n1 (centres undefined)	-3.16%
CN(C)[C@@H]1CN(C(=O)c2cc3cccc(F)c3[nH]2)C[C@H]1O	-2.67%
COc1ccccc1N1CCC(CNC(=O)N(C)Cc2ccco2)C1 (centres undefined)	-3.56%
Cc1nnc(CN(C)CCc2nc(-c3cccc(Cl)c3)no2)n1C	-13.1%
Cc1ccc2cc(C(=O)N3CCN(S(C)(=O)=O)CC3)[nH]c2c1	12.7%
c1csc(CN2CCCC3(COCCN(c4cnccn4)C3)C2)c1 (centres undefined)	-6.31%
CC(C)(C)C(=O)N1CCCC1c1cc(CO)[nH]n1 (centres undefined)	-1.34%
COc1ccc(C(=O)N2CCOCC(CO)C2)cc1N1CCOCC1 (centres undefined)	-3.09%
CC(=O)N1CCCN(C(=O)NCCc2cc(Cl)cc(Cl)c2)CC1	-6.77%
CC(=O)N1CC[C@@H](N2CCN(C)CC2)[C@@H]1Cc1ccccc1	-2.96%
CC(C)Cc1cc(C(=O)NC(C)(C)CN2CCCCCC2)on1	-4.52%
O=C(NC1CC(=O)N(C2CC2)C1)c1cccs1 (centres undefined)	11.1%
CCCC(NC(=O)c1cc(C2CC2)[nH]n1)c1nnc2ccccn12 (centres undefined)	-12.1%

SMILES	cytotoxicity at 70.5 h
NC(=O)c1ccc(N2CCCCC2)c(NC(=O)c2cc(Br)ccc2Cl)c1	16.1%
CCN1C(=O)C2(CCOCC2)c2cc(NC(=O)c3csnn3)ccc21	8.75%
CNc1nc2c(c(C(=O)N3CCCC3)n1)CN(C(=O)CCSC)CC2	-1.55%
CN1Cc2ccccc2CC2(CCN(Cc3nccn3C)CC2)C1=O	-3.31%
Cc1noc(C(C)C)c1C(=O)NCC(c1ccsc1)N(C)C (centres undefined)	4.78%
Cn1ncc2c(N3CCCN4CCC[C@H]4C3)nc(C(C)(C)C)nc21	-7.18%
CN(Cc1nnc(C2CC2)n1C)C1CCN(Cc2nccn2C)C1 (centres undefined)	2.78%
Cc1nccn1C1CCCN(C(=O)c2ccc(N(C)C)nc2)C1 (centres undefined)	-7.86%
CCCn1nnnc1CSCc1cn2c(C)cccc2n1	-12.9%
CCN(Cc1ccc2c(c1)OCCO2)C(=O)NCc1nncn1CC	-13.5%
CN1CCN(C(=O)C2CCCN2c2ncnc3ccsc23)CC1 (centres undefined)	-11.8%
Cc1ncoc1C(=O)N1C[C@@H]2CN(CC3CC3)CCO[C@@H]2C1	10.6%
Cc1ncsc1CN(Cc1ccccc1)Cc1ncc[nH]1	17.5%
CC(C)c1noc(CN(C)C(=O)C2COc3ccccc3C2)n1 (centres undefined)	-7.56%
Cc1ccoc1C(=O)NC(CC(C)C)C(=O)N1CCC(CO)CC1 (centres undefined)	27.4%
Cc1nc(C)c(CN2CCC(N(C)Cc3nnc(C4CC4)o3)C2)s1 (centres undefined)	-12.3%
COCCn1cc(C(=O)N2CCCC2c2cnn(C)c2)ccc1=O (centres undefined)	-6.63%
Cc1cc(NC(=O)CN2CCCC2c2noc(C)n2)n(C)n1 (centres undefined)	-5.38%
CC(C)(C(=O)NCc1n[nH]c(=O)[nH]1)c1ccc(F)cc1	-2.39%
COc1ccc(CN2CC[C@H](O)[C@@H]2Cc2cnn(C)c2)cc1	-11.4%
Cn1cccc1C(=O)N1CCC2(CCN2c2ncccn2)C1 (centres undefined)	-3.82%

SMILES	cytotoxicity at 70.5 h
CN(Cc1ccc(CCC(C)(C)O)cc1)CC1(CO)CC1	-10.9%
CC(C)=CCC/C(C)=C\CNCc1ccco1	2.6%
CC(C)(C)CC(NC(=O)N1CCC(C(N)=O)CC1)C(F)(F)F (centres undefined)	5.66%
CCC(C)c1noc(C2CCN(C(=O)c3cccnc3)CC2)n1 (centres undefined)	-12.8%
CC(CNC1CCN(Cc2ccncc2)CC1)c1ccc(F)cc1F (centres undefined)	-11%
CCC(OC)C(=O)N1CCc2nc(NC)nc(C(=O)N3CCCC3)c2C1 (centres undefined)	-5.78%
Cc1cc(C2CCCN(C(=O)c3c(C)noc3C)C2)n[nH]1 (centres undefined)	-5.28%
Cc1cccc(C)c1OC1CCN(Cc2ccn(C)c(=O)c2)CC1	-5.76%
CCNc1c(C#N)c(=O)n(C)c(=O)n1C	-8.97%
CNc1ncc(C(=O)N2CCOC(C(=O)N3CCCCCC3)C2)cn1 (centres undefined)	-2.75%
NC1CCCc2nc(-c3ccccc3)ncc21 (centres undefined)	-8.86%
Cc1nc(N)sc1C(=O)N1CCC(C(O)Cc2ccccc2)CC1 (centres undefined)	-7.21%
Cn1cc(CCC(=O)NCc2ccccc2OC(C)(C)C)cn1	2.39%
CCNC(=O)[C@@H]1C[C@H](N)CN1C(=O)CCc1ccc(C)c(C)c1	-3.41%
CC(C)Cn1cncc1CNC1CCSC1 (centres undefined)	21.1%
CNC(=O)CN1CCC(NC(=O)N(C)Cc2cc(C)on2)CC1	-10.8%
CCCOCCN1CCC2(CC1)CC(c1ccccc1)C(=O)N2C (centres undefined)	25.1%
CS(=O)(=O)N1CCCC12CCCN(C(=O)c1ccncc1)C2 (centres undefined)	-7.69%
O=C(NCCc1nnc2n1CCC2)c1ccccc1OC1CCCC1	-9.31%
CSc1ncccc1C(=O)Nc1ccc(Cn2ccccc2=O)cc1	18.3%
CCC(O)CN1CCN(C(=O)c2cccn2Cc2ccccc2)CC1 (centres undefined)	-10.3%

SMILES	cytotoxicity at 70.5 h
COc1ccccc1C(O)CNc1c(C#N)c(=O)n(C)c(=O)n1C (centres undefined)	-0.895%
Cn1nc(C2CCCN2)c2c(C(=O)NC3CC3)cc(C3CC3)nc21 (centres undefined)	20%
Cn1ccnc1-c1cn(CCCc2csc(N)n2)nn1	-15.7%
O=C(CC1Cn2ncnc2NC1=O)Nc1cccc(C(F)(F)F)c1 (centres undefined)	-11.2%
CCOCCC(=O)NCC1CCCO1 (centres undefined)	-6.72%
O=C(Cc1cccc(F)c1)NC1CCCc2cn[nH]c21 (centres undefined)	-11.9%
O=C(Cc1ccccn1)N1CCC2(CCCN(CC3CCOCC3)C2)C1 (centres undefined)	-0.432%
Cc1ccccc1CSc1nc(N)cc(N2CCOCC(CO)C2)n1 (centres undefined)	6.16%
CC1(c2[nH]ncc2C(N)=O)CCN(c2ncccn2)CC1	17.1%
O=C(O)c1cnc2c(cnn2C2CCCC2)c1	-0.534%
Cc1nn(C)cc1S(=O)(=O)NC1(CN2CCOCC2)CCCCC1	-3.14%
CN1CCN(c2cc(NC(=O)c3cnccn3)ncn2)CC1	0.507%
Cc1cc2c(cc1C)C(NC1CC1)CCCO2 (centres undefined)	0.0987%
CCOc1ccc(CNCC(O)c2ccccc2)cc1Cl (centres undefined)	-4.88%
CCN(CC)c1ccc(NS(=O)(=O)c2cnn(C)c2)cn1	-2.05%
Cc1ccc(F)cc1C(=O)N1CCOCC12CCCC2	-5.21%
Cc1ccc(CNC(=O)c2cc(NC(=O)C3CC3)n(C)n2)o1	-7.15%
c1cnc(N2CCC(NCc3cnc(C4CCC4)s3)CC2)nc1	-11.5%
CCCc1cc(C(=O)Nc2nc(SC)ns2)[nH]n1	-4.32%
CC(=O)N1CCC(Nc2cccc(OC(F)F)c2C)CC1	-7.15%
O=C(Nc1nncs1)c1ccc(O)nc1	0.228%
